According to patent publication US6262230A, “Analogs of thymosin α1” (SciClone Pharmaceuticals Inc., priority 1994, dated 2001):
Values joined by “and” are separate entries in the source; they are usually repeats but may differ in a detail not shown here. Equal values may be shown once.

Test system: endotoxic mice (lipopolysaccharide endotoxin from E. coli at 60 mg/kg)
Assay: Survival of endotoxic mice following lethal endotoxin dose
Assay type: in vivo, Swiss-Webster mice
Settings: endotoxin 60 mg/kg, 3 injections of 100 μg peptide at 5 minutes, 2 and 4 hours post endotoxin, alive at 0 hr: 10 (Tα1-N16-NH2 groups), 8 ([Glp]-Tα1, Tα1-Gly-NH2); for Number of Mice Alive Following Lethal Endotoxin Dose, 24 hr: endotoxin alone 4 of 10; for Number of Mice Alive Following Lethal Endotoxin Dose, 48 hr / Number of Mice Alive Following Lethal Endotoxin Dose, 72 hr / Number of Mice Alive Following Lethal Endotoxin Dose, 4 days / Number of Mice Alive Following Lethal Endotoxin Dose, 5 days: endotoxin alone 3 of 10
Procedure: Swiss-Webster mice were treated in five groups: endotoxic mice (mice injected with lipopolysaccharide endotoxin from E. coli at 60 mg/kg) which were otherwise untreated, and endotoxic mice treated with 3 injections of 100 μg Thymosin α1 -N16 Amide (Tα1 -N16 -NH2) treated in two groups, Pyroglutamyl-desacetyl Thymosin α1 ([glp]-Tα1), or Thymosin α1 -Gly Amide (Tα1 -gly-NH2) at 5 minutes, 2 and 4 hours post administration of the endotoxin.

| Substance | Number of Mice Alive Following Lethal Endotoxin Dose, 24 hr | Number of Mice Alive Following Lethal Endotoxin Dose, 48 hr | Number of Mice Alive Following Lethal Endotoxin Dose, 72 hr | Number of Mice Alive Following Lethal Endotoxin Dose, 4 days | Number of Mice Alive Following Lethal Endotoxin Dose, 5 days |
| --- | --- | --- | --- | --- | --- |
| Ac-Ser-Asp-Ala-Ala-Val-Asp-Thr-Ser-Ser-Glu-Ile-Thr-Thr-Lys-Asp-Leu-Lys-Glu- Lys-Lys-Glu-Val-Val-Glu-Glu-Ala-Glu-Asn-Gly-NH2 (Ac-SDAAVDTSSEITTKDLKEKKEVVEEAENG-NH2) [Tα1 -Gly-NH2] | 8 | 8 | 8 | 8 | 8 |
| Ac-Ser-Asp-Ala-Ala-Val-Asp-Thr-Ser-Ser-Glu-Ile-Thr-Thr-Lys-Asp-Leu-NH2 (Ac-SDAAVDTSSEITTKDL-NH2) [Tα1 -N16 --NH2] | 5 and 8 | 4 and 8 | 4 and 7 | 4 and 7 | 4 and 7 |
